From patent US20230302073A1, “BOTANICAL EXTRACTION” (Performance Labs Pte. Ltd., priority 2022, published 2023)
In brackets after ≈: the same amount, converted by molar mass.

Tests used:
[1] = DPPH radical scavenging (antioxidant) assay; assay type: biochemical; conditions: for IC50: DPPH, reference standards and yerba mate extracts by solvent (Table 10)
Experimental: The free radical scavenging activity of all the extracts was evaluated by 1,1-diphenyl-2-picryl-hydrazyl (DPPH) according to a previously reported method (Shen et al., 2010).
Thirty mg of dried extract of each sample was diluted in 10 ml of methanol, obtaining a concentration of 3 mg/mL as stock solution. From this stock solution were obtained the concentrations of 1.5, 0.75; 0.375; 0.1875; 0.09375; 0.046875; 0.0234275; and 0.01171825 mg/mL. Ascorbic acid, rutin, chlorogenic acid as pure reference standards were used as a positive control and dissolved in methanol to make the stock solution with the same concentration of extract solution.
DPPH (7.89 mg) was weighed on a chemical balance with a minimum weighing limit of 10 μg or smaller. Thereafter, it was dissolved in HPLC grade methanol to obtain a constant volume by filling 100 ml of a measuring flask (0.2 mM DPPH). Then further dilute this solution to 0.1 mM. The absorbance of a DPPH solution is empirically known to decrease with time until approximately 1 hr after preparation. Therefore, it was kept in dark for 2 hr until the absorbance stabilized.
The DPPH solution was stored in the dark at room temperature during the assay, and used up on the day of the preparation. 0.3 mL of each sample concentration and positive control was added to 2.7 mL of 0.1 mM DPPH solution. Reaction occurred inside tubes covered with aluminum paper, in a dark environment at 25° C. The mixtures were shaken vigorously and allowed to stand at room temperature for 30 minutes. Then the absorbance was measured at 517 nm using a microplate reader (Varioskan LUX, ThermoFisher). Control sample was prepared containing the same volume without any extract and reference ascorbic acid; methanol was used as blank and % scavenging of the DPPH free radical was measured using the following equation:
DPPH scavenging effect (% inhibition)={(Ac−As)/Ac)*100}
Where, Ac=absorbance of DPPH alone, As=absorbance of DPPH along with different concentrations of extracts.
The measurements were done at eight points of concentration. The measurement for and analytical sample solution at each concentration was repeated three times.
The IC50 of each analytical sample was calculated according to the following procedure: Inhibition ratio were plotted against the sample concentrations at all six points and the respective regression line (y=ax+b) was drawn. The regression line was not required to pass through the origin. In this step, we verified that all of the measurement points were on the regression line. […] When Y in the regression equation was substituted with 50, X (sample concentration) was calculated.
This value was obtained from the results of calculations using linear regression analysis. […]

[2] = adults; cited from earlier work
[3] = in choline chloride and glycerol; cited from earlier work

| Structure (SMILES) | IC50 [1] [µg/mL] | also measured |
| --- | --- | --- |
| Cn1c(=O)c2c(ncn2C)n(C)c1=O [caffeine, 1,3,7-trimethylxanthine] |  | contribution to the extract's antioxidant property ([1]; correlation of DPPH IC50 with total CQAs, with or without caffeine): no contribution |
| C[N+](C)(C)CCO [choline] |  | daily upper limit, highest level of intake unlikely to cause harm [2]: 3,500 mg/day |
| Cn1cnc2c1c(=O)[nH]c(=O)n2C [theobromine, 3,7-dimethylxanthine] |  | solubility relative to water [3]: ~32 times |

Now from value to compound, other results behind:

| IC50 [1] [µg/mL] | Structure (SMILES) | also measured |
| --- | --- | --- |
| 185.68 (≈ 360 µM) | O=C(/C=C/c1ccc(O)c(O)c1)O[C@@H]1CC(O)(C(=O)O)C[C@@H](OC(=O)/C=C/c2ccc(O)c(O)c2)C1O (stereo partly drawn) [3,5-diCQA, 3,5-dicaffeoylquinic acid] |  |
| 199.68 (≈ 387 µM) | O=C(/C=C/c1ccc(O)c(O)c1)O[C@H]1[C@H](O)C[C@](O)(C(=O)O)C[C@H]1OC(=O)/C=C/c1ccc(O)c(O)c1 [4,5-diCQA, 4,5-dicaffeoylquinic acid] |  |
| 446.70 (≈ 2540 µM) | O=C1O[C@H]([C@@H](O)CO)C(O)=C1O [ascorbic acid] |  |
